Experimental data from patent US4251543A, “2-(p-Prenylphenyl)propionic acid” (priority 1978, dated 1981).

Assays:
liver weight = assay: Liver weight per 100 g of the test rat; format: in vivo, rat (male Wistar); conditions: 100 + 200 mg/Kg, p.o., mean ± S.E.
Method: (§1) Anti-inflammatory activity was evaluated by the method of rat paw edema(Winter et al., J. Pharmacol. Exp. Ther., 141, 369(1963)). Six male Wistar strain rats were used in each group and a volume of the each paw was measured three hours after injection of carrageenin.
Immediately after the completion of the test described in Experiment 1, the test compound was orally administered to the test rats in a dose twice the dose administered in Experiment 1, and fasting was continued for 18 hours prior to autopsy and evaluation of gastric lesions and liver weight per 100 g of the test rat. The gastric lesions induced were expressed as incidence(number of rats with gastric lesions/number of the rats) and lesion index(sum of areas damaged). The results are shown in Table 3, wherein the values of lesion index and liver weight are mean ± S.E.

gastric lesions = assay: Gastric lesions after oral administration; format: in vivo, rat (male Wistar); conditions: 100 + 200 mg/Kg, p.o.; for lesion index (sum of areas damaged): mean ± S.E.
Method: Anti-inflammatory activity was evaluated by the method of rat paw edema(Winter et al., J. Pharmacol. Exp. Ther., 141, 369(1963)). Six male Wistar strain rats were used in each group and a volume of the each paw was measured three hours after injection of carrageenin. […] The gastric lesions induced were expressed as incidence(number of rats with gastric lesions/number of the rats) and lesion index(sum of areas damaged). The results are shown in Table 3, wherein the values of lesion index and liver weight are mean ± S.E.

rat paw edema = assay: Anti-inflammatory activity, rat paw edema (carrageenin); format: in vivo, rat (male Wistar); conditions: p.o., three hours after injection of carrageenin
Method: as §1

[1] = Changes of body weight, repeated oral administration; format: in vivo, rat (male Wister); conditions: for body weight before treatment: before treatment (baseline); for body weight before treatment / body weight after 5 days / body weight after 10 days: mean ± S.E.; for body weight after 5 days / body weight after 10 days: orally
Method: (§2) The test compound was suspended in 0.4% CMC solution in an appropriate concentration, and was administered orally once a day at the definite dose (50, 100 or 200 mg/Kg) in each 10 male Wister rats. Additional 10 control rats were received an equivalent volume of the vehicle. […] In those tables, the values of body weight, red blood cell and hemoglobin are mean ± S.E.

[2] = tested on: red blood cell and hemoglobin; assay: Hematological findings after 10 days administration; format: in vivo, rat (male Wister); conditions: for hemoglobin / red blood cell: p.o., day one after 10 days administration, mean ± S.E.; for effect on hemoglobin count (in words) / effect on red blood cell count (in words): 50, 100 or 200 mg/Kg orally once a day, 10 days
Method: as §2

acetic acid writhing = assay: Analgesic activity, acetic acid writhing test; format: in vivo, mouse (male ddY); conditions: p.o.
Text: Male ddY strain mice in groups of ten each were used for the evaluation of analgesic activity by acetic acid writhing test(Koster et al., Federation Proc., 18, 412(1959)).

SMILES	liver weight (liver weight)	lesion index (sum of areas damaged) (gastric lesions)	inhibition (%) (rat paw edema; 50 mg/Kg)	inhibition (%) (rat paw edema; 100 mg/Kg)	inhibition (%) (rat paw edema; 200 mg/Kg)	effect on hemoglobin count (in words) [2]	effect on red blood cell count (in words) [2]	inhibition (%) (acetic acid writhing; 50 mg/Kg)	inhibition (%) (acetic acid writhing; 100 mg/Kg)	inhibition (%) (acetic acid writhing; 200 mg/Kg)	also measured
CCCCC1C(=O)N(c2ccccc2)N(c2ccccc2)C1=O [phenylbutazone, reference compound]	4.23 ± 0.09 g	4.59 ± 1.35 mm^2									
CC(C)=CCc1ccc(C(C)C(=O)O)cc1 (stereo not shown) [TA-060, 2-[p-(3-methyl-2-butenyl)phenyl]propionic acid]	3.56 ± 0.04 g	0 mm^2	35.9%	46.5%	52.1%	no effect	no effect	37.3%	40.0%	62.7%	gastric lesion incidence (number of rats with gastric lesions/number of the rats) (gastric lesions; fasting 18 hours prior to autopsy): 0/12; body weight before treatment ([1]; 50 mg/Kg/day group): 211.5 ± 3.6 gram; body weight after 5 days ([1]; 50 mg/Kg/day): 224.6 ± 3.6 gram; body weight after 10 days ([1]; 50 mg/Kg/day): 239.7 ± 3.2 gram; body weight before treatment ([1]; 100 mg/Kg/day group): 210.0 ± 2.5 gram; body weight after 5 days ([1]; 100 mg/Kg/day): 226.4 ± 2.8 gram; body weight after 10 days ([1]; 100 mg/Kg/day): 238.5 ± 2.3 gram; body weight before treatment ([1]; 200 mg/Kg/day group): 211.7 ± 3.1 gram; body weight after 10 days ([1]; 200 mg/Kg/day, **p <0.001): 238.3 ± 5.1 gram; body weight after 5 days ([1]; 200 mg/Kg/day, *p <0.01): 221.9 ± 4.6 gram; effect on body weight gain (in words) ([1]; 50, 100 or 200 mg/Kg orally once a day, 10 days): no effect; hemoglobin ([2]; 50 mg/Kg): 15.2 ± 0.1 g/dL; red blood cell ([2]; 50 mg/Kg, *p <0.05): 864.2 ± 20.2 × 10^4 /mm^3; hemoglobin ([2]; 100 mg/Kg, ***p <0.001): 15.1 ± 0.2 g/dL; red blood cell ([2]; 100 mg/Kg, **p <0.01): 860.8 ± 9.5 × 10^4 /mm^3; hemoglobin ([2]; 200 mg/Kg, ***p <0.001): 15.0 ± 0.2 g/dL; red blood cell ([2]; 200 mg/Kg, **p <0.01): 857.9 ± 15.2 × 10^4 /mm^3
CC(C)Cc1ccc(C(C)C(=O)O)cc1 (stereo not shown) [ibuprofen, reference compound]			37.9%	49.5%	52.9%	significant decrease	significant decrease	18.6%	37.5%	53.8%	
